According to patent publication US10828315B2 (Madrigal Pharmaceuticals, Inc., priority 2013, dated 2020):
Read-outs that look alike come from different tables or passages of the source.

Legend:
[1] = test system: human breast cancer cell line BT-474; test: Cytotoxicity assay (CellTiter-Glo, 72 h), BT-474; type: cell-based; details: read-out: Cytotoxicity (IC50, nM) BT-474
Protocol: (§1) Cytotoxicity of SDC-TRAP molecules was determined in three cancer cell lines. […] 80 μL of CellTiter-Glo was added to each well, followed by room temperature incubation in the dark for 15 minutes. Cell was determined by luminescence. IC50 was calculated using XLfit™ software.

[2] = test system: human urinary bladder cancer cell line SW780; test: Cytotoxicity assay (CellTiter-Glo, 72 h), SW780; type: cell-based; details: read-out: Cytotoxicity (IC50, nM) SW-780
Protocol: as §1

[3] = test system: human urinary bladder cancer cell line RT-112; test: Cytotoxicity assay (CellTiter-Glo, 72 h), RT-112; type: cell-based; details: read-out: Cytotoxicity (IC50, nM) RT-112
Protocol: as §1

HER2 = HER2 degradation assay with BT-474 cell line (Example 12, FACS); type: cell-based, human

Row | Structure (SMILES) | IC50 ([1]; BT-474, 72 h) | IC50 ([2]; SW780, 72 h) | IC50 ([3]; RT-112, 72 h) | IC50 (HER2) | IC50 ([1]; BT-474, 72 hours) | IC50 ([2]; SW780, 72 hours) | IC50 ([3]; RT-112, 72 hours) | IC50 (HER2; BT-474 cells, overnight)
1 | CCc1c2c(nc3ccc(OC(=O)N4CCC[C@H]4C(=O)N4CCN(c5ccc(-n6c(O)nnc6-c6cc(C(C)C)c(O)cc6O)cc5)CC4)cc13)-c1cc3c(c(=O)n1C2)COC(=O)[C@]3(O)CC [SDC-TRAP-0204, (S)—(S)-4,11-diethyl-4-hydroxy-3,14-dioxo-3,4,12,14-tetrahydro-1H-pyrano[3′,4′:6,7]indolizino[1,2-b]quinolin-9-yl 2-(4-(4-(3-(2,4-dihydroxy-5-isopropylphenyl)-5-hydroxy-4H-1,2,4-triazol-4-yl)phenyl)piperazine-1-carbonyl)pyrrolidine-1-carboxylate] | 8060 nM | > 10000 nM | 1310 nM | > 10000 nM | – | – | – | –
2 | CCNC(=O)c1nnc(-c2cc(C(C)C)c(O)cc2O)n1-c1ccc(CN2CCC(C(=O)N3CCC(C(=O)N[C@H]4C[C@H](O[C@H]5C[C@](O)(C(=O)CO)Cc6c(O)c7c(c(O)c65)C(=O)c5c(OC)cccc5C7=O)O[C@@H](C)[C@H]4O)CC3)CC2)cc1 [SDC-TRAP-0198, 1-(1-(4-(3-(2,4-dihydroxy-5-isopropylphenyl)-5-(ethylcarbamoyl)-4H-1,2,4-triazol-4-yl)benzyl)piperidine-4-carbonyl)-N-((2S,3S,4S,6R)-3-hydroxy-2-methyl-6-(((1S,3S)-3,5, 12-trihydroxy-3-(2-hydroxyacetyl)-10-methoxy-6,11-dioxo-1,2,3,4,6,11-hexahydrotetracen-1-yl)oxy)tetrahydro-2H-pyran-4-yl)piperidine-4-carboxamide] | – | – | – | – | 786 nM | > 10000 nM | 297 nM | > 10000 nM
3 | CCc1c2c(nc3ccc(OC(=O)N4CCN(C(=O)Cn5ccc6cc(-n7c(O)nnc7-c7cc(C(C)C)c(O)cc7O)ccc65)CC4C)cc13)-c1cc3c(c(=O)n1C2)COC(=O)C3(O)CC (stereo not shown) [SDC-TRAP-0201, 4,11-Diethyl-4-hydroxy-3,14-dioxo-3,4,12,14-tetrahydro-1H-pyrano[3′,4′:6,7]indolizino[1,2-b]quinolin-9-yl 4-(2-(5-(3-(2,4-dihydroxy-5-isopropylphenyl)-5-hydroxy-4H-1,2,4-triazol-4-yl)-1H-indol-1-yl)acetyl)-2-methylpiperazine-1-carboxylate] | 1410 nM | 1100 nM | 72 nM | 4670 nM | – | – | – | –
4 | CC(C)c1cc(-c2nnc(O)n2-c2ccc(CN3CCN(C(=O)CCCc4nc5cc(N(CCCl)CCCl)ccc5n4C)CC3)cc2)c(O)cc1O [SDC-TRAP-0069, 4-(5-(bis (2-chloroethyl)amino)-1-methyl-1H-benzo[d]imidazol-2-yl)-1-(4-(4-(3-(2,4-dihydroxy-5-isopropylphenyl)-5-hydroxy-4H-1,2,4-triazol-4-yl)benzyl)piperazin-1-yl)butan-1-one] | 914 nM | 1340 nM | 909 nM | – | – | – | – | 1230 nM
